Test results from article PMC7377239, “Cardiovascular Effects of Polychlorinated Biphenyls and Their Major Metabolites” (Environmental Health Perspectives, 2020).
Where two headings read alike, the source gives them in different places.

Tested on: iCell cardiomyocytes (human iPSC-derived cardiomyocytes)
Assay: High-content imaging of cytotoxicity and mitochondrial integrity in iPSC-CMs
Format: cell-based
Details: Homo sapiens, Cardiomyocyte; for viability at 0.01 µM / activity at 0.01 µM / viability at 0.1 µM / activity at 0.1 µM / viability at 1 µM / activity at 1 µM / viability at 10 µM / activity at 10 µM / viability at 100 µM / activity at 100 µM: 0.00 µM = 100.00; for viability at 0.1 µM / activity at 0.1 µM: 0.10 µM
In short: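 Cardiomyocytes grown on gelatinized 384-well plates received fresh medium on the experiment day and were then exposed to chemicals at 0.01–100μM. Nuclei and mitochondria were labeled with Hoechst 33342 and MitoTracker™ Orange, then fixed, and imaged on an ImageXpress® Micro Confocal system. Four-parameter logistic concentration–response fits in R, with a one-standard-deviation vehicle cutoff, gave point-of-departure values.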

[1] = 1.5 h, 90min, read-out: cm.cam.90min
[2] = 1.5 h, 90min, read-out: cm.mii.90min
[3] = 1.5 h, 90min, read-out: cm.mito.90min
[4] = 1.5 h, 90min, read-out: cm.tc.90min
[5] = 1.5 h, 90min, read-out: cm.cam.90min POD
[6] = 1.5 h, 90min, read-out: cm.mii.90min POD
[7] = 1.5 h, 90min, read-out: cm.mito.90min POD
[8] = 1.5 h, 90min, read-out: cm.tc.90min POD
[9] = 24 h, 24hrs, read-out: cm.cam.24hrs
[10] = 24 h, 24hrs, read-out: cm.mii.24hrs
[11] = 24 h, 24hrs, read-out: cm.mito.24hrs
[12] = 24 h, 24hrs, read-out: cm.tc.24hrs
[13] = 24 h, read-out: cm.cam.24hrs POD
[14] = 24 h, read-out: cm.mii.24hrs POD
[15] = 24 h, read-out: cm.mito.24hrs POD
[16] = 24 h, read-out: cm.tc.24hrs POD

Clc1cc(Cl)c(-c2cc(Cl)c(Cl)cc2Cl)cc1Cl [PCB153]
viability at 0.01 µM [1]: 98.3% | activity at 0.01 µM [2]: 112% | activity at 0.01 µM [3]: 98.2% | viability at 0.01 µM [4]: 98.1% | viability at 0.1 µM [1]: 96.8% | activity at 0.1 µM [2]: 109% | activity at 0.1 µM [3]: 96.6% | viability at 0.1 µM [4]: 96.6% | viability at 1 µM [1]: 102% | activity at 1 µM [2]: 112% | activity at 1 µM [3]: 102% | viability at 1 µM [4]: 102% | viability at 10 µM [1]: 99.4% | activity at 10 µM [2]: 102% | activity at 10 µM [3]: 99.5% | viability at 10 µM [4]: 99.5% | viability at 100 µM [1]: 1.35% | activity at 100 µM [2]: 91% | activity at 100 µM [3]: 1.22% | viability at 100 µM [4]: 1.5% | minimal effective concentration [5]: 20.6 µM | minimal effective concentration [6]: 100 µM | minimal effective concentration [7]: 19.8 µM | minimal effective concentration [8]: 23.2 µM | viability at 0.01 µM [9]: 94.6% | activity at 0.01 µM [10]: 88.6% | activity at 0.01 µM [11]: 94.7% | viability at 0.01 µM [12]: 95.8% | viability at 0.1 µM [9]: 98.2% | activity at 0.1 µM [10]: 109% | activity at 0.1 µM [11]: 99.3% | viability at 0.1 µM [12]: 98.3% | viability at 1 µM [9]: 99.7% | activity at 1 µM [10]: 80.6% | activity at 1 µM [11]: 100% | viability at 1 µM [12]: 99.9% | viability at 10 µM [9]: 96.8% | activity at 10 µM [10]: 99.6% | activity at 10 µM [11]: 95.2% | viability at 10 µM [12]: 96.5% | viability at 100 µM [9]: 1.91% | activity at 100 µM [10]: 23.6% | activity at 100 µM [11]: 0.34% | viability at 100 µM [12]: 1.92% | minimal effective concentration [13]: 11.6 µM | minimal effective concentration [14]: 39.9 µM | minimal effective concentration [15]: 10.5 µM | minimal effective concentration [16]: 11.1 µM

Oc1cc(Cl)c(-c2cc(Cl)ccc2Cl)cc1Cl [4-OH PCB52]
viability at 0.01 µM [1]: 89.4% | activity at 0.01 µM [2]: 103% | activity at 0.01 µM [3]: 87.5% | viability at 0.01 µM [4]: 89.4% | viability at 0.1 µM [1]: 103% | activity at 0.1 µM [2]: 101% | activity at 0.1 µM [3]: 103% | viability at 0.1 µM [4]: 104% | viability at 1 µM [1]: 97.9% | activity at 1 µM [2]: 97.3% | activity at 1 µM [3]: 97.9% | viability at 1 µM [4]: 98.1% | viability at 10 µM [1]: 95.1% | activity at 10 µM [2]: 116% | activity at 10 µM [3]: 94.7% | viability at 10 µM [4]: 94.9% | viability at 100 µM [1]: 0% | activity at 100 µM [2]: 7.54% | activity at 100 µM [3]: 0.0231% | viability at 100 µM [4]: 0.0461% | minimal effective concentration [5]: 8.86 µM | minimal effective concentration [6]: 45.7 µM | minimal effective concentration [7]: 8.61 µM | minimal effective concentration [8]: 8.75 µM | viability at 0.01 µM [9]: 99.2% | activity at 0.01 µM [10]: 98.8% | activity at 0.01 µM [11]: 99.4% | viability at 0.01 µM [12]: 99.5% | viability at 0.1 µM [9]: 102% | activity at 0.1 µM [10]: 93.3% | activity at 0.1 µM [11]: 104% | viability at 0.1 µM [12]: 103% | viability at 1 µM [9]: 96.1% | activity at 1 µM [10]: 102% | activity at 1 µM [11]: 94.1% | viability at 1 µM [12]: 96% | viability at 10 µM [9]: 101% | activity at 10 µM [10]: 88.3% | activity at 10 µM [11]: 102% | viability at 10 µM [12]: 101% | viability at 100 µM [9]: 10.2% | activity at 100 µM [10]: 193% | activity at 100 µM [11]: 20.3% | viability at 100 µM [12]: 49.7% | minimal effective concentration [13]: 32.7 µM | minimal effective concentration [14]: 65.1 µM | minimal effective concentration [15]: 36.7 µM | minimal effective concentration [16]: 41.4 µM

Oc1ccc(O)c(-c2ccc(Cl)cc2)c1 [2',5'-diOH-PCB 3, 4-Chloro-2′,5′-dihydroxybiphenyl]
minimal effective concentration (1.5 h, cardiomyocytes (cm), cam, 90 min, read-out: POD cm.cam.90min): 32.4 µM | minimal effective concentration (1.5 h, cardiomyocytes (cm), mii, 90 min, read-out: POD cm.mii.90min): 7.9 µM | minimal effective concentration (1.5 h, cardiomyocytes (cm), mito, 90 min, read-out: POD cm.mito.90min): 12.7 µM | minimal effective concentration (1.5 h, cardiomyocytes (cm), tc, 90 min, read-out: POD cm.tc.90min): 33.4 µM | minimal effective concentration (24 h, cardiomyocytes (cm), cam, 24 hrs, read-out: POD cm.cam.24hrs): 1.84 µM | minimal effective concentration (24 h, cardiomyocytes (cm), mii, 24 hrs, read-out: POD cm.mii.24hrs): 2.28 µM | minimal effective concentration (24 h, cardiomyocytes (cm), mito, 24 hrs, read-out: POD cm.mito.24hrs): 0.97 µM | minimal effective concentration (24 h, cardiomyocytes (cm), tc, 24 hrs, read-out: POD cm.tc.24hrs): 1.88 µM
